Patent publication US20190276798A1, “METHOD FOR PREPARING COLLAGEN HAVING REGENERATION AND REPAIR EFFECTS FROM WHARTON'S JELLY MESENCHYMAL STEM CELLS” (P.E. ASIA BIOMEDICINE CO., LTD., priority 2018, published 2019)

How the values were obtained:
type III collagen = assay: Collagen 3 expression in WJMSC cells, Western blotting; assay type: cell-based, human; settings: for expression of pro-collagen 3: FIG. 3(B), ImageJ fold change vs control, normalized to β-actin
Description: (§1) Wharton's Jelly mesenchymal stein cells (WJMSC cells: BCRC H-WJ001) were cultured in α-MEM medium supplemented with 10% to 20% of fetal bovine serum (FBS) and 2 to 8 ng/mL of human basic fibroblast growth factor (bFGF). In the present invention, the WJMSC cells are incubated in α-MEM medium supplemented with 10% FBS and 4 ng/mL bFGF. In addition, the WJMSC cells are incubated in an incubator with a temperature of 37° C. and 5% carbon dioxide (CO2).
(§2) The WJMSC cells were seeded onto culture dishes at a cell density of 5×10^4 cells/cm^2, and incubated in a first medium of 10% FBS α-MEM medium supplemented with and 4 ng/mL bFGF for 24 hours. After 24 hours, the first medium was removed and the WJMSC cells were washed by 1× phosphate-buffered saline (PBS) for two to three times. The WJMSC cells were then incubated in a second medium for 48 hours. The second medium contains α-MEM medium supplemented with bFGF (ProSpece cat: cyt-218-b), proline (Calbiochem, cat: #5370), arginine (Merck, cat: #1011542) or L-ascorbic acid (Sigma, cat: SI-A8960) as experimental design. After 48 hours, the cells were collected for protein extraction, and expression of type I collagen (abbreviated to “collagen 1”) and type III collagen (abbreviated to “collagen 3”) was examined.
(§3) The cell medium was removed and the cells were washed by 1× PBS for two times. The cells were treated with 10 mM EDTA (ethylenediaminetetraacetic acid)-PBS solution or 0.5 M acetic acid and scraped down at 4° C. to obtain a first mixture. The first mixture was placed into a centrifuge tube for lysing cells by a sonication process. The sonication process comprises sonication at […] for 15 seconds by an ultrasonicator for three times, and the time interval between each sonication is 30 seconds. After the sonication process, the first mixture was centrifuged at 4° C. at a speed of 2000 rpm for 30 minutes to obtain a protein crud extract.
(§4) In addition, a cell lysis buffer can be used for cell protein extraction. The extraction method comprises the steps of removing cell medium, washing the cells by 1× PBS twice, adding RIPA cell lysis buffer containing 10 mM EDTA into the cells and shaking for at least 30 minutes, scraping down the cells to obtain a cells-lysis buffer mixture, placing the cells-lysis buffer mixture into a centrifuge tube, and centrifuging at 4° C. at a speed of 12000 rpm for at least 15 minutes to obtain a protein crud extract.
(§5) The protein crud extract was then mixed with 25% saturated […] solution, or mixed with 3M sodium chloride (NaCl) solution for reaction at 4° C. for 24 hours to perform a salting-out process. After 24 hours, the mixed solution was centrifuged at 4° C. at a speed of 3500 g for 30 minutes, and a supernatant was removed to preserve a sediment. The sediment was washed by 1× PBS, and centrifuged at 4° C. at a speed of 3500 g for 30 minutes. The sediment was preserved and dissolved by 0.5 M acetic acid solution to obtain a protein extract. The protein extract was then analyzed by Western blotting assay to detect expression of collagen. All the experiments were repeated at least twice and the results with representative are disclosed.
(§6) FIG. 3(A) is a diagram showing effects of L-ascorbic acid and proline on collagen expression in WJMSC cells. In FIG. 3(A), “AA(5)” represents that WJMSC cells were treated with 5 μM L-ascorbic acid, “Pro(2)” represents that WJMSC cells were treated with 2 mM proline, and “bFGF(4)” represents that the WJMSC cells were treated with 4 ng/mL bFGF. In addition, pro-collagen 1, collagen 1, pro-collage 3 and collagen 3 are marked by arrow signs in FIG. 3(A). […] Referring to FIG. 3(B), the results in FIG. 3(A) are quantified by ImageJ software, the quantification method comprises steps of acquiring a density value of a band of a target in Western blotting and normalizing the density value with a density value of β-actin of the same sample to obtain a normalization value. […]

type I collagen = assay: Collagen 1 expression in WJMSC cells, Western blotting; assay type: cell-based, human; settings: for expression of pro-collagen 1: FIG. 3(B), ImageJ fold change vs control, normalized to β-actin
Description: as §1, §2, §3, §4, §5, §6

[1] = test system: Human foreskin fibroblasts (HS68); assay: Wound healing of HS68 cells on collagen-coated culture dish; assay type: cell-based; settings: for Wound size (%): dish coated with 50 μg/mL collagen; for Wound healing percentage (%): relative to wound size at 2 hours
Description: Human foreskin fibroblasts (HS68) were seed and attached onto a culture dish at a density of 2×10^4 cells/cm^2 and were incubated in 10% FBS DMEM medium for 24 hours. In control group, an ordinary culture dish without any treatment was used. In collagen group, a collagen-coated culture dish used is prepared by dropping appropriate amount of collagen extracted from WJMSC cells at a concentration of 50 μg/mL on a surface of the culture dish, spreading the collagen evenly, and placing the culture dish into a 37° C. incubator overnight to obtain the collagen-coated culture dish. After the HS68 cells were cultured for 24 hours, the culture medium of HS68 cells was removed and the cells were washed by 1× PBS. A wound was generated on the attached cells, and the wound was observed and photographed at 0, 2, 4, 6, and 20 hours after wound generation by a microscopy. The photographs were analyzed by ImageJ software. The region has no cell on it is considered as a wound size, and a wound healing percentage is calculated by the following formula:
Wound healing percentage (%)=[(wound size at observed time point−wound size at 2 hours after wound generation)/wound size at 2 hours after wound generation]×100%.

[2] = WJMSC cells treated with 0.2 mM to 20 mM of arginine (FIG. 1)
[3] = WJMSC cells treated with arginine alone, 0.2 mM (FIG. 2)
[4] = WJMSC cells treated with 5 μM L-ascorbic acid
[5] = WJMSC cells treated with 4 ng/mL bFGF
[6] = WJMSC cells treated with 0.2 mM proline
[7] = WJMSC cells treated with 2 mM proline, vs control
[8] = WJMSC cells treated with 5 mM to 20 mM proline, same enhancement as with 2 mM

## N=C(N)NCCC[C@H](N)C(=O)O [arginine]
Type III collagen; [2]
  expression of collagen 3: not is enhanced
Type III collagen; [3]
  expression of collagen 3: not enhanced
Type I collagen; [2]
  expression of collagen 1: not is enhanced
Type I collagen; [3]
  expression of collagen 1: not enhanced

## O=C1O[C@H]([C@@H](O)CO)C(O)=C1O [L-ascorbic acid]
Type III collagen; 5 μM L-ascorbic acid
  expression of pro-collagen 3: enhanced
Type III collagen; [4]
  expression of collagen 3: enhanced
Type I collagen; 5 μM L-ascorbic acid
  expression of pro-collagen 1: enhanced
Type I collagen; [4]
  expression of collagen 1: enhanced

## Collagen
[1]; 2 hr after wound generation
  Wound size (%): 15.2%
[1]; 4 hr after wound generation
  Wound healing percentage (%): 13.0%
  Wound size (%): 13.3%
[1]; 6 hr after wound generation
  Wound healing percentage (%): 38.0%
  Wound size (%): 9.4%
[1]; 6 hr after wound generation, listed as collagen
  Wound healing percentage (%): 38%
[1]; 20 hr after wound generation
  Wound healing percentage (%): 100.0%
  Wound size (%): 0.0%
[1]; 20 hr after wound generation, listed as collagen
  Wound healing percentage (%): 100%
[1]; 20 hr, 10× objective lens, vs control group (FIG. 6)
  cell density: higher
[1]; after 4 hours and 6 hours of wound generation, microscopy, vs control group (FIG. 6)
  cells observed on the wound region: more significant
[1]; after 20 hours of wound generation, microscopy (FIG. 6)
  wound region covered by cells: all covered by cells
[1]; over the observed time points
  wound healing percentage, collagen group compared with control group: better

## bFGF: human basic fibroblast growth factor (bFGF)
Type III collagen; 4 ng/mL bFGF
  expression of pro-collagen 3: enhanced
Type III collagen; [5]
  expression of collagen 3: enhanced
Type I collagen; 4 ng/mL bFGF
  expression of pro-collagen 1: enhanced
Type I collagen; [5]
  expression of collagen 1: enhanced

## O=C(O)[C@@H]1CCCN1 [proline]
Type III collagen; 2 mM proline
  expression of pro-collagen 3: enhanced
Type III collagen; [6]
  expression of collagen 3: enhanced
Type III collagen; [7]
  expression of collagen 3: enhanced
Type III collagen; [8]
  expression of collagen 3: not achieved
Type I collagen; 2 mM proline
  expression of pro-collagen 1: enhanced
Type I collagen; [6]
  expression of collagen 1: enhanced
Type I collagen; [7]
  expression of collagen 1: enhanced
Type I collagen; [8]
  expression of collagen 1: not achieved
